In patent publication US11583532B2, “Triazolopyrimidine derivatives for use as ghrelin o-acyl transferase (GOAT) inhibitors” (Boehringer Ingelheim International GmbH, priority 2018, dated 2023) one finds IC50 data, which are given here for 42 compounds.

The target in the assay is human GOAT (ghrelin O-acyl transferase) (Homo sapiens (Human), UniProt Q96T53). Kind of assay: Determination of hGOAT activity in HEK293 cells after incubation with test compound (acyl-ghrelin ELISA). The class given is cell-based. As to conditions: HEK293 cells stably transfected with preproghrelin and human GOAT cDNA; octanoate-BSA 100 μM; 5 hours incubation; acyl-ghrelin in medium by ELISA; 8 compound concentrations. On the procedure:
Determination of hGOAT Activity in HEK293 Cells after incubation with test compound
HEK293 cells stably transfected with two expression vectors, one coding for preproghrelin cDNA and a second for the expression of human GOATcDNA are used as a cellular model. After feeding the cells with octanoic acid for 5 hours, acyl-ghrelin is measured in cell culture medium by an ELISA procedure.
Cellline: Hek293 hGOAT/PPGhrl Clone #1B8Sodium octanoate, Sigma, Cat.-No. C5038
BSA: Sigma, Cat.-No. A8806
BD Poly-D-Lysin 384-well Plates, black-clear polystyrene BD Bioscience Cat.-No. […] ELISA human acylated Ghrelin Kit purchased from Bertin Pharman (detailed composition of buffers e.g. wash-puffer, ELISA buffer not known)
All further reagents used were of highest analytical grade available.
Cells are plated with a density of 5000 cells/well in 384-well poly-D-lysin plates and incubated for 1 day at 37° C., 5% CO2 in DMEM medium, 10% FCS, 1×NEAA, Puromycin (0.5 μg/ml) and G418 (1 mg/ml). Then the medium is changed to a identical medium without FCS and containing Octanoate-BSA (final concentration 100 μM each) and compound in DMSO (final DMSO concentration 0.3%). After incubation for 5 hours acylghrelin in the medium is measured by ELISA.
The medium sample is diluted 1:25 in Elisa buffer, a 25 μl aliquot is transferred to a 384-well ELISA plate previously washed 4 times with 100 μL wash buffer, and 25 μl tracer-solution is added. After incubation overnight (˜20 h) at 4° C. temperature the plate is washed 4 times with 100 μl wash-buffer per well. Finally 50 μl Ellman's reagent is added to each well and the plate is incubated in the dark for 20 minutes. The absorbance is measured at 405 nm in an Envision multilabel reader and the amount of acylated ghrelin is calculated according to a acylated ghrelin standard curve provided in the same plate.
The analysis of the data is performed by calculation of the percentage of acyl-ghrelin produced in the presence of test compound compared to the amount of acyl-ghrelin produced in the vehicle control samples. An inhibitor of the GOAT enzyme will give values between 100% CTL (no inhibition) and 0% CTL (complete inhibition).
IC50 values are calculated with Assay Explorer or other suited software based on curve fitting of results of 8 different compound concentrations.
For orientation: ELISA stands for enzyme-linked immunosorbent assay.

Structures are written as SMILES. Where “and” joins values, the source holds several entries; their conditions need not be identical. Identical values can stand only once.

Sequence of human GOAT (ghrelin O-acyl transferase) (Q96T53 whole entry): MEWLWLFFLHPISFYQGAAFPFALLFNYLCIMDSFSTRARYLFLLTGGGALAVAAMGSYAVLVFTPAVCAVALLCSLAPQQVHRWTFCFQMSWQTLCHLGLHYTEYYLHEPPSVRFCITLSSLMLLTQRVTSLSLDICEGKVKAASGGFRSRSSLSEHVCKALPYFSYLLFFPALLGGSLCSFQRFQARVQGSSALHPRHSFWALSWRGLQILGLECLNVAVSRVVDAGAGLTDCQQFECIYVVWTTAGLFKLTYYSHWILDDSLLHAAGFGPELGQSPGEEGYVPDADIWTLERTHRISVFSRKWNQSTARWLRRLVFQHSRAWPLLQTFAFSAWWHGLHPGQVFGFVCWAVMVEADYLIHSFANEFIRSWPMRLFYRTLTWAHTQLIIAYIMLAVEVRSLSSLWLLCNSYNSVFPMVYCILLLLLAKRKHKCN

The compound `COC(=O)c1cc(Cc2c(C)nc3ncnn3c2N)ccc1OC(F)(F)F` [Example 15.1, Methyl 5-({7-amino-5-methyl-[1,2,4]triazolo[1,5-a]pyrimidin-6-yl}methyl)-2-(trifluoromethoxy)benzoate] came in with an IC50 of 0.83 nM.

For the compound `Cc1nc2ncnn2c(N)c1Cc1ccc(Br)c(N2Cc3ccc(F)cc3C2)n1` [Example 23.6], half-maximal inhibition (IC50) was put at 0.86 nM. The result for `Cc1nc2ncnn2c(N)c1Cc1ccc(C(F)(F)F)c(-c2ccco2)n1` [Example 2.1, 6-{[6-(Furan-2-yl)-5-(trifluoromethyl)pyridin-2-yl]methyl}-5-methyl-[1,2,4]triazolo[1,5-a]pyrimidin-7-amine] reads 0.4 nM; that for `Cc1nc2ncnn2c(N)c1Cc1ccc(Br)c(OCC(F)F)n1` [Example 8.4], 0.3 nM. The result for `Cc1nc2ncnn2c(N)c1Cc1ccc(C(F)(F)F)c(Br)c1` [Example 4.3] reads 1.1 nM. Compound `COc1cc(C(F)(F)F)ccc1Cc1c(Cl)nc2ncnn2c1N` [Example 25.1, 5-Chloro-6-{[2-methoxy-4-(trifluoromethyl)phenyl]methyl}-[1,2,4]triazolo[1,5-a]pyrimidin-7-amine] yielded an IC50 of 0.83 nM. `Cc1nc2ncnn2c(N)c1Cc1ccc(OC(F)F)c(Br)c1` [Example 1.2] yielded an IC50 of 2 nM.

Regarding `Cc1nc2ncnn2c(N)c1Cc1ccc(OC(F)F)c(Br)n1` [Example 4.1, 6-{[6-Bromo-5-(difluoromethoxy)pyridin-2-yl]methyl}-5-methyl-[1,2,4]triazolo[1,5-a]pyrimidin-7-amine], 0.3 nM corresponded to half-maximal inhibition (IC50). The same measure for `COc1cc(C(F)(F)F)ccc1Cc1c(C)nc2ncnn2c1N` [Example 6.2]: 0.69 nM; for `Cc1nc2ncnn2c(N)c1Cc1ccc(C#N)c(OCCF)n1` [Example 9.4]: 3.7 nM; for `Cc1nc2ncnn2c(N)c1Cc1ccc(C(F)(F)F)cc1F` [Example 21.1, 6-{[2-Fluoro-4-(trifluoromethyl)phenyl]methyl}-5-methyl-[1,2,4]triazolo[1,5-a]pyrimidin-7-amine]: 8.1 nM. The result for `Cc1nc2ncnn2c(N)c1Cc1ccc(Br)c(C2(C#N)CC(F)(F)C2)n1` [Example 14.1, 1-[6-({7-Amino-5-methyl-[1,2,4]triazolo[1,5-a]pyrimidin-6-yl}methyl)-3-bromopyridin-2-yl]-3,3-difluorocyclobutane-1-carbonitrile] reads 0.31 nM; that for `Cc1nc2ncnn2c(N)c1Cc1ccc(OC(F)(F)F)c(C(=O)NC(C)C)c1` [Example 15.3], 8.6 nM. `Cc1nc2ncnn2c(N)c1Cc1ccc(C#N)c(OCCCF)n1` [Example 9.3] returned an IC50 of 0.56 nM. The same measure for `Cc1nc2ncnn2c(N)c1Cc1ccc(C(F)(F)F)c(N2CC(F)(F)C2)n1` [Example 3.3]: 0.32 nM and 0.76 nM. The same measure for `CCOc1cc(C(F)(F)F)ccc1Cc1c(C)nc2ncnn2c1N` [Example 4.5]: 2.4 nM; for `Cc1nc2ncnn2c(N)c1Cc1ccc(OC(F)(F)F)cc1` [Example 6.1, 5-methyl-6-{[4-(trifluoromethoxy)phenyl]methyl}-[1,2,4]triazolo[1,5-a]pyrimidin-7-amine]: 3.9 nM; for `Cc1nc2ncnn2c(N)c1Cc1ccc(Br)c(OCCCF)n1` [Example 8.1, 6-{[5-Bromo-6-(3-fluoropropoxy)pyridin-2-yl]methyl}-5-methyl-[1,2,4]triazolo[1,5-a]pyrimidin-7-amine]: 0.27 nM.

In the case of `Cc1nc2ncnn2c(N)c1Cc1ccc(C#N)c(NCC(F)F)n1` [Example 7.1, 6-({7-amino-5-methyl-[1,2,4]triazolo[1,5-a]pyrimidin-6-yl}methyl)-2-[(2,2-difluoroethyl)amino]pyridine-3-carbonitrile], the IC50 stood at 0.37 nM.

`Cc1nc2ncnn2c(N)c1Cc1ccc(Br)c(NCC(F)(F)F)n1` [Example 8.2] gave an IC50 of 0.23 nM.

Regarding `Cc1nc2ncnn2c(N)c1Cc1ccc(Br)c(N2CC(F)(F)C2)n1` [Example 23.3], the IC50 was 0.36 nM. The same measure for `Cc1nc2ncnn2c(N)c1Cc1cccc(OC(F)F)n1` [Example 4.8]: 8.8 nM; for `CCOc1nc(C(F)(F)F)ccc1Cc1c(C)nc2ncnn2c1N` [Example 4.7]: 2.9 nM. For `Cc1nc2ncnn2c(N)c1Cc1ccc([S+]([O-])C(F)(F)F)cc1` (stereo not drawn) [Example 19.1, 5-M ethyl-6-[(4-trifluoromethanesulfinylphenyl)methyl]-[1,2,4]triazolo[1,5-a]pyrimidin-7-amine], it took 4.9 nM to reach half-maximal inhibition (IC50). The same measure for `Cc1nc2ncnn2c(N)c1Cc1ccc(C#N)c(OCC(F)F)n1` [Example 9.1, 6-({7-Amino-5-methyl-[1,2,4]triazolo[1,5-a]pyrimidin-6-yl}methyl)-2-(2,2-difluoroethoxy)pyridine-3-carbonitrile]: 2.4 nM; for `Cc1nc2ncnn2c(N)c1Cc1ccc(C(F)(F)F)c(C#N)n1` [Example 24.1, 6-({7-Amino-5-methyl-[1,2,4]triazolo[1,5-a]pyrimidin-6-yl}methyl)-3-(trifluoromethyl)pyridine-2-carbonitrile]: 4.6 nM; for `Cc1nc2ncnn2c(N)c1Cc1ccc(C#N)c(NCC(F)(F)F)n1` [Example 7.6]: 0.69 nM. The result for `Cc1nc2ncnn2c(N)c1Cc1cccc(-c2cn(C)nc2C(F)(F)F)n1` [Example 13.1, 5-Methyl-6-({6-[1-methyl-3-(trifluoromethyl)-1H-pyrazol-4-yl]pyridin-2-yl}methyl)-[1,2,4]triazolo[1,5-a]pyrimidin-7-amine] reads 1.7 nM. `Nc1c(Cc2ccc(C(F)(F)F)cc2)c(Cl)nc2ncnn12` [Example 25.3] displayed an IC50 of 5.7 nM.

`Cc1nc2ncnn2c(N)c1Cc1cccc(-c2c[nH]nc2C(F)(F)F)n1` [Example 13.2]: the IC50 came to 2.1 nM. In turn, `Cc1nc2ncnn2c(N)c1Cc1ccc(Br)c(N2CCC(C(F)(F)F)C2)n1` (stereo not drawn) [Example 23.4] came in with an IC50 of 0.7 nM. The same measure for `Nc1c(Cc2ccc(C(F)(F)F)cc2)c(C(F)F)nc2ncnn12` [Example 17.1, 5-(Difluoromethyl)-6-{[4-(trifluoromethyl)phenyl]methyl}-[1,2,4]triazolo[1,5-a]pyrimidin-7-amine]: 0.95 nM. The same measure for `Cc1nc2ncnn2c(N)c1Cc1ccc(Br)c(N2CCC(O)(C(F)(F)F)C2)n1` (stereo not drawn) [Example 23.5]: 0.83 nM; for `Cc1nc2ncnn2c(N)c1Cc1ccc(Br)c(N2CCC(F)(F)C2)n1` [Example 23.1, 6-{[5-Bromo-6-(3,3-difluoropyrrolidin-1-yl)pyridin-2-yl]methyl}-5-methyl-[1,2,4]triazolo[1,5-a]pyrimidin-7-amine]: 0.25 nM.

The compound `COC(=O)c1cc(Cc2c(C)nc3ncnn3c2N)ccc1C(F)(F)F` [Example 7.2] registered an IC50 of 0.57 nM. The result for `Cc1nc2ncnn2c(N)c1Cc1ccc(OC(F)F)c(C#N)n1` [Example 12.1, 6-({7-Amino-5-methyl-[1,2,4]triazolo[1,5-a]pyrimidin-6-yl}methyl)-3-(difluoromethoxy)pyridine-2-carbonitrile] reads 4.4 nM.

With `Cc1nc2ncnn2c(N)c1Cc1ccc(C(F)(F)F)c(N)n1` [Example 3.4], the IC50 amounted to 6.5 nM. The result for `Cc1nc2ncnn2c(N)c1Cc1ccc(Br)c(OCC(C)(F)F)n1` [Example 1.1, 6-{[5-Bromo-6-(2,2-difluoropropoxy)pyridin-2-yl]methyl}-5-methyl-[1,2,4]triazolo[1,5-a]pyrimidin-7-amine] reads 0.31 nM; that for `Cc1nc2ncnn2c(N)c1Cc1ccc(OC(F)(F)F)c(C#N)c1` [Example 20.1, 5-({7-Amino-5-methyl-[1,2,4]triazolo[1,5-a]pyrimidin-6-yl}methyl)-2-(trifluoromethoxy)benzonitrile], 9.2 nM. The same measure for `Cc1nc2ncnn2c(N)c1Cc1ccc(-c2c[nH]nc2C(F)(F)F)c(N)n1` [Example 16.1, 6-({7-Amino-5-methyl-[1,2,4]triazolo[1,5-a]pyrimidin-6-yl}methyl)-3-[3-(trifluoromethyl)-1H-pyrazol-4-yl]pyridin-2-amine]: 3.1 nM; for `Cc1nc2ncnn2c(N)c1Cc1ccc(OC(F)(F)F)c(Br)c1` [Example 4.4, 6-{[3-bromo-4-(trifluoromethoxy)phenyl]methyl}-5-methyl-[1,2,4]triazolo[1,5-a]pyrimidin-7-amine]: 1.1 nM. The same measure for `COc1nc(C(F)(F)F)ccc1Cc1c(C)nc2ncnn2c1N` [Example 4.2]: 1.9 nM.

One may read the IC50 as the concentration that inhibits the measured activity by half. Low values mean greater potency, high ones weaker potency.
